Laboratory results taken from publication PMC12040169 (PLOS Biology, 2025).

assay: in vitro; conditions: human, hela cells, % viability

Point of comparison: COc1ccc(S(=O)(=O)N2CCN(C(=S)Nc3ccc(S(N)(=O)=O)cc3)CC2)cc1 [CBK266898], viability at 28.5 h, 10 µM 92.6%. Against it:
- Cc1cccc(OCCSc2nc3c(N)ncn(Cc4ccccc4)c-3n2)c1 [CBK266843] — lower, 84.1%
- Cc1cc(C)c(S(=O)(=O)N2CCC(C(=O)NNC(=S)NC3CCCC3)CC2)c(C)c1 [CBK266844] — higher, 98.4%
- O=C(CCc1ccc(S(=O)(=O)NC2CCCCC2)cc1)Nc1ccc2c(c1)OCCO2 [CBK266845] — higher, 95.2%
- COC(=O)c1c(NC(=S)Nc2cn(C)nc2C(N)=O)sc2c1CCCCC2 [CBK266849] — higher, 93.4%
- CC(Oc1ccc2c(c1)OCO2)C(=O)NNC(=O)Nc1cccc(Cl)c1Cl (stereo not shown) [CBK266852] — lower, 86.5%
- Cn1c2ccccc2n2c(SCc3nc4ccc([N+](=O)[O-])cc4[nH]3)nnc12 [CBK266853] — lower, 88.6%
- COc1cc([N+](=O)[O-])ccc1NC(=O)NCc1ccco1 [CBK266855] — higher, 101%
- O=C(COc1ccc(F)cc1F)NNC(=S)NC1CCCCC1 [CBK266859] — lower, 82.2%
- COC(=O)c1ccccc1NC(=O)N1CCN(S(=O)(=O)c2ccc(Cl)cc2)CC1 [CBK266860] — lower, 88%
- CC(C)c1ccc(S(=O)(=O)Nc2ccc(O)c(Sc3nc[nH]n3)c2)cc1 [CBK266861] — lower, 90.8%
- COC(=O)c1c(NC(=S)Nc2ccc(Br)cn2)sc2c1CCC2 [CBK266862] — higher, 92.9%
- COc1cc([N+](=O)[O-])ccc1NC(=S)NNS(=O)(=O)c1cc(Cl)c(Cl)cc1Cl [CBK266863] — higher, 96.2%
- CC(NS(=O)(=O)c1ccc(CCC(=O)N2CCN(C)CC2)cc1)c1ccccc1 (stereo not shown) [CBK266868] — lower, 91.7%
- Cc1nnc(N2C(=O)c3oc4ccc(Cl)cc4c(=O)c3C2c2cccc(OCc3ccccc3)c2)s1 (stereo not shown) [CBK266870] — higher, 95%
- O=C(NNS(=O)(=O)c1ccc([N+](=O)[O-])cc1)Nc1cccc(C(F)(F)F)c1 [CBK266871] — higher, 105%
- COc1ccc(N(C(C)C(=O)Nc2ccc(Cl)c(Cl)c2)S(C)(=O)=O)cc1 (stereo not shown) [CBK266872] — higher, 114%
- CCOc1ccccc1NC(=O)CN(C)S(=O)(=O)c1ccc2ccccc2c1 [CBK266874] — higher, 101%
- Cn1c(=O)c2ncn(CC(=O)Nc3ccc(N4CCN(Cc5ccccc5)CC4)cc3)c2n(C)c1=O [CBK266875] — higher, 99.7%
- Cc1nnc(SCC(=O)NNC(=O)c2cccs2)[nH]1 [CBK266879] — higher, 93.7%
- NS(=O)(=O)c1ccc(N/C(S)=N\c2cccc(C(=O)O)c2)cc1 [CBK266880] — higher, 103%
- COc1ccc(CCNC(=S)NN2CCN(C)CC2)cc1OC [CBK266884] — higher, 93.2%
- COC(=O)c1c(NC(=S)NCCn2cc(Br)cn2)sc2c1CCC(C)C2 (stereo not shown) [CBK266886] — lower, 89.8%
- COC(=O)c1c(NC(=S)Nc2ccn(C)n2)sc2c1CCCCC2 [CBK266888] — higher, 106%
- C=CCNC(CC(=O)Nc1ccc(C)c(Cl)c1)C(=O)O (stereo not shown) [CBK266892] — higher, 92.8%
- CN(c1ccc(C(=O)Nc2ccc(S(=O)(=O)N3CCCC3)cc2)cc1)S(=O)(=O)c1ccccc1 [CBK266896] — higher, 102%
- COc1ccc(CCNC(=S)N2CCN(c3ccccn3)CC2)cc1OC [CBK266897] — higher, 94.5%
- Cc1ccc2oc(-c3cc(NC(=O)c4nc[nH]n4)ccc3O)nc2c1 [CBK266900] — higher, 101%
- O=C(CCC(=O)c1ccc(F)cc1)Nc1cccnc1 [CBK266901] — lower, 89.4%
- Cc1ccc(C)c(C(=O)CCC(=O)Nc2cccnc2)c1 [CBK266902] — higher, 95.8%
- COC(=O)c1c(NC(=S)NCCn2cc(Br)cn2)sc2c1CCC2 [CBK266905] — higher, 98.2%
- O=C(O)c1ccc(CNC(=S)NCC2CCCO2)cc1 (stereo not shown) [CBK266908] — higher, 98.2%
- O=C(Oc1ccc(N(C(=O)c2ccncc2)S(=O)(=O)c2cccc3cccnc23)c2ccccc12)c1ccncc1 [CBK266915] — lower, 79.5%
- COc1ccc(CCNC(=S)N2CCN(S(C)(=O)=O)CC2)cc1OC [CBK266917] — higher, 115%
- CSc1ccccc1NC(=O)Cn1c(-c2nonc2N)nc2ccccc21 [CBK266919] — lower, 90%
- CC(Oc1ccc2c(c1)OCO2)C(=O)NNC(=O)Nc1cccc(C(F)(F)F)c1 (stereo not shown) [CBK266922] — lower, 87.7%
- Cc1cccc(NC(=O)CC(C(=O)O)N2CCOCC2)c1 (stereo not shown) [CBK266925] — higher, 96.3%
- CCOC(=O)c1cnc(Nc2nc3ccccc3o2)nc1CN1CCN(c2ccccc2)CC1 [CBK266927] — higher, 93.1%
- CC(NS(=O)(=O)c1ccccc1)C(=O)Nc1ccc(S(N)(=O)=O)cc1 (stereo not shown) [CBK266929] — higher, 110%
- COc1ccc(S(=O)(=O)NCCO)cc1-c1nnc2c3ccccc3c(C)nn12 [CBK266933] — lower, 91.9%
- Cc1ccc([N+](=O)[O-])cc1S(=O)(=O)Nc1ccc(O)c(Sc2nc3ccccc3s2)c1 [CBK266936] — higher, 97.6%
- Cc1ccccc1NC(=O)Cn1c(=O)n(CC(=O)Nc2ccccc2C)c2ccccc21 [CBK266938] — higher, 101%
- CNS(=O)(=O)c1ccc(NC(=O)Nc2ccc([N+](=O)[O-])cc2OC)cc1 [CBK266939] — higher, 93.1%
- Cc1ccc(C(C)C)c(OCCSc2nc3c(N)ncnc3[nH]2)c1 [CBK266941] — higher, 94.3%
- COC(=O)c1c(NC(=S)Nn2cnnc2)sc2c1CCC(C)C2 (stereo not shown) [CBK266942] — lower, 91.6%
- COC(=O)c1c(NC(=S)NCc2cccs2)sc(C)c1-c1ccccc1 [CBK266943] — higher, 97%
- CCOc1ccc(NC(=O)Nc2ccc(CC(=O)O)cc2)cc1 [CBK266945] — higher, 112%
- CN(CC(=O)N1CCOCC1)S(=O)(=O)c1ccc2ccccc2c1 [CBK266946] — higher, 98.5%
- COCCCNC(=S)Nc1ccc(N2CCOCC2)c2nonc12 [CBK266947] — lower, 88.8%
- Oc1ccc(-c2n[nH]cc2-c2cnn(-c3ccccc3)c2)c(O)c1O [CBK266948] — higher, 104%
- CN1CCN(c2nc(NCCNc3ccc([N+](=O)[O-])cc3)c3ccccc3n2)CC1 [CBK266949] — lower, 77.5%
- CCn1cc(C(C)NC(=S)Nc2ccc(OC)cc2OC)c(C)n1 (stereo not shown) [CBK266950] — lower, 90%
- CCOC(=O)c1c(NC(=S)NCc2ccccn2)sc2c1CCCCC2 [CBK266954] — higher, 106%
- O=C(O)CC(NCc1ccccc1)C(=O)Nc1cccc(F)c1 (stereo not shown) [CBK266956] — lower, 92.3%
- Cc1cnn(CCCNC(=S)Nc2ccc(S(N)(=O)=O)cc2)c1 [CBK266957] — lower, 90.7%
- COc1ccc(Cl)cc1NC(=O)Nc1ccc(C(=O)N2CCOCC2)cc1 [CBK266958] — lower, 87.1%
- CN(C)CCNC(=O)C(=O)Nc1ccc(Cl)cc1 [CBK266965] — higher, 107%
- CCC(C)c1ccc(NC(S)=NCc2ccccn2)cc1 (stereo not shown) [CBK266966] — lower, 89.2%
- Cc1cccc(C)c1OCC(=O)Nc1ccc(S(=O)(=O)N2CCOCC2)cc1 [CBK266967] — higher, 94.1%
- Cc1ccccc1NC(=O)CC(C(=O)O)N1CCOCC1 (stereo not shown) [CBK266969] — higher, 113%
- O=C(O)C1CCCN1S(=O)(=O)c1ccc2[nH]c(=O)c(=O)[nH]c2c1 (stereo not shown) [CBK266971] — lower, 88.9%
- NS(=O)(=O)c1ccc(NC(=S)NNC(=O)c2ccc(Br)o2)cc1 [CBK266972] — higher, 95.8%
- CC(C)(C)NS(=O)(=O)c1ccc(CCC(=O)Nc2ccc(F)c(Cl)c2)cc1 [CBK266974] — lower, 89.9%
- COc1ccc(CNC(=S)Nc2cccc(C(F)(F)F)c2)cc1OC [CBK266977] — higher, 101%
- CCNS(=O)(=O)c1ccc(NC(=S)Nc2ccc(S(N)(=O)=O)cc2)cc1 [CBK266978] — higher, 99.5%
- c1ccc2c(c1)nc(-c1cscn1)n2Cc1ccc(-c2nnn[nH]2)cc1 [CBK266979] — higher, 96.6%
- O=C(O)CNS(=O)(=O)c1ccc(Cl)c(Cl)c1 [CBK266981] — lower, 86.2%
- Fc1ccc(NC(=S)NNC(=S)Nc2cccc3ccccc23)c(F)c1 [CBK266982] — lower, 89.8%
- COc1ccc(C(C)C)cc1S(=O)(=O)NCCc1c(C)[nH]c2c(Cl)cccc12 [CBK266983] — higher, 94.5%
- CC(NS(=O)(=O)c1ccc(Cl)cc1)C(=O)Nc1ccccc1Sc1ccccc1 (stereo not shown) [CBK266984] — higher, 98.4%
- Cc1c(C(C)NC(=O)Nc2ccc(F)cc2F)cnn1C (stereo not shown) [CBK266986] — higher, 95.1%
- Nn1c(CSc2ccccn2)nnc1CSc1ccccn1 [CBK266987] — lower, 90.8%
- Cc1ccc(S(=O)(=O)Nc2nc3ccc(S(=O)(=O)N4CCOCC4)cc3s2)cc1 [CBK266988] — lower, 88.8%
- CCc1cc(C(=O)OC)c(NC(=O)CC2NCCNC2=O)s1 (stereo not shown) [CBK266990] — higher, 97.6%
- O=[N+]([O-])c1ccc(S(=O)(=O)CC(CN2CCCC2)N2CCCC2)cc1 (stereo not shown) [CBK266991] — higher, 112%
- Cc1nc(SCc2cccc(C(=O)O)c2)nc2c1CCCC2 [CBK266997] — lower, 87.3%
- Cc1cc(C(=O)O)ccc1-c1ccc(/C=C/c2[nH]c(=O)[nH]c(=O)c2[N+](=O)[O-])o1 [CBK266998] — higher, 97.3%
- COc1ccc(CCNC(=S)n2cc(C)cn2)cc1OC [CBK267001] — lower, 89%
- Cc1ccc(NC(=O)Cn2cnc3c(=O)n(C)c(=O)n(C)c32)c(O)c1 [CBK267002] — higher, 102%
- CCOC(=O)COc1c(Cl)cc(/C=C/c2[nH]c(=O)[nH]c(=O)c2[N+](=O)[O-])cc1Cl [CBK267003] — lower, 91.2%
- O=C(Nc1cc(Cl)ccc1Cl)C1CN(S(=O)(=O)c2ccccc2)CCN1S(=O)(=O)c1ccccc1 (stereo not shown) [CBK267004] — lower, 88.7%
- COc1ccc(C)cc1N(CC(=O)Nc1ccc(F)c(F)c1)S(C)(=O)=O [CBK267006] — higher, 96.5%
- CC(=O)Nc1ccc(S(=O)(=O)N2CCN(c3cc4[nH]c(=O)[nH]c4cc3[N+](=O)[O-])CC2)cc1 [CBK267013] — higher, 97.7%
- O=C(NCc1ccccn1)Nc1ccc2c(c1)OCO2 [CBK267014] — higher, 97.1%
- CN(CC(=O)N1CCN(Cc2ccc3c(c2)OCO3)CC1)S(=O)(=O)c1ccc2ccccc2c1 [CBK267016] — higher, 108%
